Experimental findings from patent publication US20240245658A1, “TAAR1 AND SEROTONIN MODULATORS, AND PHARMACEUTICAL COMPOSITIONS, AND METHODS OF USE THEREOF” (Sunovion Pharmaceuticals Inc., priority 2021, published 2024) are described below.

Read-outs that look alike come from different tables or passages of the source.

Type in all cases: cell-based
The target of test [1] is T1, human 5-HT7 receptor (Homo sapiens, UniProt P34969).
T1 construct: host or cells: CHO-K1
The experiment in a line: 5HT7 Antagonism Assay (Euroscreen FAST-0499C), cAMP HTRF. To be noted: CHO-K1 cells expressing human 5-HT7, reference agonist at EC80, cAMP HTRF. Put shortly: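 CHO-K1 cells expressing human 5-HT7, 3000 per well in Krebs-Ringer HEPES with 1 mM IBMX, were exposed for 30 minutes at room temperature to compound plus reference agonist at its EC80. cAMP was read by HTRF after 1 hour; compounds were tested in duplicate from 0.3 to 10,000 nM.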
For orientation: TR-FRET usually uses a lanthanide donor and a delayed reading to cut background.

In test [2] the target is T2, human TAAR1 receptors (Homo sapiens, UniProt Q96RJ0).
T2 construct: host or cells: CHO-K1
T2 sequence (Q96RJ0 1-339): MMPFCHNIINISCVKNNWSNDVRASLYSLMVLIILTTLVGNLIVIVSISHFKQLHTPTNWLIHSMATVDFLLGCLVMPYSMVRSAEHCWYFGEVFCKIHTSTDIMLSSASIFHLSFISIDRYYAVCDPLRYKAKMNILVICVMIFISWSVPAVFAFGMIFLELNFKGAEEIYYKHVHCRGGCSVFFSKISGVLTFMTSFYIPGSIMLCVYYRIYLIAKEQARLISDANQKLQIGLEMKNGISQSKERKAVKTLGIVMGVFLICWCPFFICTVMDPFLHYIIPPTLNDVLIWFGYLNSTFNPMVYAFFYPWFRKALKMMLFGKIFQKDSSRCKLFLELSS
As to the kind of experiment: TAAR1 Agonism Assay: cAMP HTRF assay for Gs coupled receptor TAAR1 (Euroscreen FAST-0987C). To be noted: CHO-K1 cells expressing human TAAR1, cAMP HTRF. Put shortly: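 cAMP accumulation detected by HTRF fluorescence ratio, reagents added in lysis buffer and incubated 1 h at about room temperature. Beforehand, cells (about 3,000 per well) sat with test compound at ten concentrations from 0.3 to 10,000 nM in duplicate for roughly 30 min at about room temperature; tyramine dose-response run alongside.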

The target in test [3] is T3, human 5-HT2A receptor (Homo sapiens, UniProt P28223).
T3 construct: host or cells: CHO-K1
The experiment in a line: 5HT2A Antagonism Assay (Euroscreen FAST-05051), IP-One HTRF. Put shortly:
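CHO-K1 cells expressing receptor, 20,000/well, co-incubated with test compound and reference agonist at its EC80 for 60 min at 37 °C. IP1 accumulation read by HTRF after ~1 h detection at room temperature. Compounds tested in duplicate at 0.3–10,000 nM.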

The mark [4] stands for this setting: read-out: 5-HT2A (IC50), CHO-K1 cells expressing human 5-HT2A, reference agonist at EC80, IP-One.
[5] abbreviates: 5-HT2A (IC50), CHO-K1 cells expressing human 5-HT2A, reference agonist at EC80, IP-One.
The mark [6] stands for this setting: CHO-K1 cells expressing human 5-HT2A, reference agonist at EC80, IP-One, read-out: 5-HT2A (IC50).

T3 sequence (P28223 whole entry): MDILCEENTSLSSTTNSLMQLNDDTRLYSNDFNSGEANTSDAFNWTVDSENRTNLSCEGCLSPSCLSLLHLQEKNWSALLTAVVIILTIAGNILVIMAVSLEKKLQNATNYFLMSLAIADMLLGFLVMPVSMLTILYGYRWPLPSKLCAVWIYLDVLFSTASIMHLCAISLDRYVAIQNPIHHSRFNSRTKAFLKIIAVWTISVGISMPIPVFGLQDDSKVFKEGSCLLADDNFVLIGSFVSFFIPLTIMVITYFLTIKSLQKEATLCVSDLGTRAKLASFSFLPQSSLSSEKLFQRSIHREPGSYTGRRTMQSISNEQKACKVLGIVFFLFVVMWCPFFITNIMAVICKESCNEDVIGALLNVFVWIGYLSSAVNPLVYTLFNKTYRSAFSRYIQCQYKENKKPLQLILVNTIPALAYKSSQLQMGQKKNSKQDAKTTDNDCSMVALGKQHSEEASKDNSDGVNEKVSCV
T1 sequence (P34969 whole entry): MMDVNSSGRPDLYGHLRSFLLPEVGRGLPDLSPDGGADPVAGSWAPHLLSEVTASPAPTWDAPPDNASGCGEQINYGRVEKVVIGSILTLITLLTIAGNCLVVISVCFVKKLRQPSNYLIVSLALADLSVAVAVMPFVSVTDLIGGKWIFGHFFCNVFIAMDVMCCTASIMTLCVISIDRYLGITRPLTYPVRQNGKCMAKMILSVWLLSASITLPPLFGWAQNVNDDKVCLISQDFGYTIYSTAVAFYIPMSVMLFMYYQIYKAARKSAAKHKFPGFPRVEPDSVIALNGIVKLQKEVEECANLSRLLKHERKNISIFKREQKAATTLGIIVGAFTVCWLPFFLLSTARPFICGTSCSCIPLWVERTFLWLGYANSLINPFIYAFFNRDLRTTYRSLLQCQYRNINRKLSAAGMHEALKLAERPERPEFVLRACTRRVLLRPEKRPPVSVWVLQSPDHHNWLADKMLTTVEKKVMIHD

In the case of `CNCC1Oc2ccc(F)cc2Oc2ccccc21` (single isomer, unassigned) [Compound 44, (S*)-1-(7-fluoro-11H-dibenzo[b,e][1,4]dioxepin-11-yl)-N-methylmethanamine], the 50% inhibitory concentration (IC50) in test [1] and in test [3] (setting [4]) was < 1 µM each time. Further, in test [2], the EC50 was < 1 µM.
Consider `NCC1Cc2ccccc2Oc2cccnc21` (single isomer, unassigned) [Compound 7, (S*)-(10,11-dihydrobenzo[6,7]oxepino[3,2-b]pyridin-11-yl)methanamine], for which the 50% inhibitory concentration (IC50) in test [1] was 1 to 10 µM; in test [3] (setting [5]) it was > 10 µM. The EC50 in test [2] was < 1 µM.
As to `CNCC1Cc2ccccc2Oc2cc(F)ccc21` (single isomer, unassigned) [Compound 3, (R*)-1-(7-fluoro-10,11-dihydrodibenzo[b,f]oxepin-10-yl)-N-methylmethanamine], the IC50 in test [1] is 1 to 10 µM; in test [3] (setting [5]), < 1 µM. The EC50 in test [2] is > 10 µM.
Regarding `NCC1Cc2cc(F)ccc2Oc2ccccc21` (single isomer, unassigned) [Compound 96, (R*)-(2-fluoro-10,11-dihydrodibenzo[b,f]oxepin-10-yl)methanamine], the half-maximal inhibitory concentration (IC50) in test [1] was ≥ 10 µM; in test [3] (setting [5]), < 1 µM. The EC50 in test [2] was < 1 µM.
With `NCC1Cc2c(F)cccc2Oc2cccnc21` (single isomer, unassigned) [Compound 137, (R*)-(9-fluoro-10,11-dihydrobenzo[6,7]oxepino[3,2-b]pyridin-11-yl)methanamine], the figures for the IC50 in test [1] and in test [3] (setting [5]) were ≥ 10 µM and > 10 µM, respectively. Moreover, in test [2], the half-maximal effective concentration (EC50) was < 1 µM.
In the case of `C[C@@H]1c2ccccc2Oc2cccnc2[C@H]1CN` (stereo in doubt) [Compound 114, ((10S*,11R*)-10-methyl-10,11-dihydrobenzo[6,7]oxepino[3,2-b]pyridin-11-yl)methanamine], the values for the half-maximal inhibitory concentration (IC50) in test [1] and in test [3] (setting [5]) were ≥ 10 µM and 1 to 10 µM, respectively. The EC50 in test [2] was < 1 µM.
For `CNCC1Cc2ccc(Cl)cc2Oc2cccnc21` (single isomer, unassigned) [Compound 126, (S*)-(7-chloro-10,11-dihydrobenzo[6,7]oxepino[3,2-b]pyridin-11-yl)-N-methylmethanamine], in that order: ≥ 10 µM, < 1 µM and < 1 µM.
Regarding `CNCC1Cc2ncccc2Oc2cc(Cl)ccc21` (single isomer, unassigned) [Compound 173, (R*)-1-(7-chloro-10,11-dihydrobenzo[6,7]oxepino[3,2-b]pyridin-10-yl)-N-methylmethanamine], the IC50 in test [1] is ≥ 10 µM; in test [3] (setting [6]) it was < 1 µM. In addition, the concentration giving a half-maximal response (EC50) in test [2] is > 10 µM.
Taken in the same sequence, the figures for `CNCC1Oc2ccccc2Oc2cnccc21` (single isomer, unassigned) [Compound 52, (S*)-1-(5H-benzo[2,3][1,4]dioxepino[5,6-c]pyridin-5-yl)-N-methylmethanamine] were ≥ 10 µM, 1 to 10 µM and > 10 µM.
With `NCC1Cc2ncc(F)cc2Oc2ccccc21` (single isomer, unassigned) [Compound 39, (R*)-(3-fluoro-10,11-dihydrobenzo[6,7]oxepino[3,2-b]pyridin-10-yl)methanamine], the figures for the IC50 in test [1] and in test [3] (setting [5]) were ≥ 10 µM and < 1 µM, respectively. In test [2], the 50% effective concentration (EC50) lay in the range of 1 to 10 µM.
Turning to `NCC1Cc2c(Cl)cccc2Oc2cccnc21` (single isomer, unassigned) [Compound 145, (R*)-(9-chloro-10,11-dihydrobenzo[6,7]oxepino[3,2-b]pyridin-11-yl)methanamine], the half-inhibitory concentration (IC50) is ≥ 10 µM in test [1] and < 1 µM in test [3] (setting [4]). Also, in test [2], the EC50 was < 1 µM.
Take `NCC1Cc2cc(Cl)ccc2Oc2cccnc21` (single isomer, unassigned) [Compound 121, (R*)-(8-chloro-10,11-dihydrobenzo[6,7]oxepino[3,2-b]pyridin-11-yl)methanamine]: the IC50 in test [1] and in test [3] (setting [5]) was < 1 µM in each case. In addition, in test [2], the concentration for a half-maximal effect (EC50) was < 1 µM.
In the case of `NCC1Cc2ccccc2Oc2cc(F)ccc21` (single isomer, unassigned) [Compound 1, (R*)-(7-fluoro-10,11-dihydrodibenzo[b,f]oxepin-10-yl)methanamine], the IC50 in test [1] is ≥ 10 µM; in test [3] (setting [5]) it was < 1 µM. In test [2], this molecule returned a concentration giving a half-maximal response (EC50) of 1 to 10 µM.
Consider `CNCC1Cc2ccncc2Oc2ccccc21` (single isomer, unassigned) [Compound 23, (R*)-1-(5,6-dihydrobenzo[6,7]oxepino[2,3-c]pyridin-6-yl)-N-methylmethanamine], for which the IC50 in test [1] and in test [3] (setting [5]) was < 1 µM in each case. Further, in test [2], the concentration for a half-maximal effect (EC50) is < 1 µM.
Turning to `CNCC1Cc2ncccc2Oc2ccc(F)cc21` (single isomer, unassigned) [Compound 165, (R*)-(8-fluoro-10,11-dihydrobenzo[6,7]oxepino[3,2-b]pyridin-10-yl)-N-methylmethanamine], the IC50 in test [1] was ≥ 10 µM; in test [3] (setting [5]), < 1 µM. The EC50 in test [2] is > 10 µM.
Taken in the same sequence, the figures for `CNCC1Cc2cccc(F)c2Oc2ccccc21` (single isomer, unassigned) [Compound 86, (R*)-(4-fluoro-10,11-dihydrodibenzo[b,f]oxepin-10-yl)-N-methylmethanamine] were 1 to 10 µM, < 1 µM and < 1 µM.
`NCC1Cc2ccccc2Oc2cc(F)ccc21` (single isomer, unassigned) [Compound 2, (S*)-(7-fluoro-10,11-dihydrodibenzo[b,f]oxepin-10-yl)methanamine]: the half-inhibitory concentration (IC50) in test [1] was ≥ 10 µM; in test [3] (setting [4]) it was < 1 µM. In test [2], the 50% effective concentration (EC50) was < 1 µM.
`NCC1Cc2ccncc2Oc2ccccc21` (single isomer, unassigned) [Compound 21, (R*)-(5,6-dihydrobenzo[6,7]oxepino[2,3-c]pyridin-6-yl)methanamine]: the concentration for half-maximal inhibition (IC50) in test [1] is ≥ 10 µM; in test [3] (setting [5]), 1 to 10 µM. For the same molecule, the 50% effective concentration (EC50) in test [2] is < 1 µM.
Taken in the same sequence, the figures for `Cc1ccc2c(c1)CC(CN)c1ncccc1O2` (single isomer, unassigned) [Compound 129, (R*)-(8-methyl-10,11-dihydrobenzo[6,7]oxepino[3,2-b]pyridin-11-yl)methanamine] were < 1 µM, < 1 µM and < 1 µM.
Take `CNCC1Oc2ccccc2Oc2cnccc21` (single isomer, unassigned) [Compound 51, (R*)-1-(5H-benzo[2,3][1,4]dioxepino[5,6-c]pyridin-5-yl)-N-methylmethanamine]: the half-inhibitory concentration (IC50) in test [1] is ≥ 10 µM; in test [3] (setting [6]), 1 to 10 µM. In addition, the EC50 in test [2] was 1 to 10 µM.
As to `NCC1Oc2ccccc2Cc2ccccc21` (stereo not drawn) [Compound 77, (6,11-dihydrodibenzo[b,e]oxepin-6-yl)methanamine], the values for the half-inhibitory concentration (IC50) in test [1] and in test [3] (setting [6]) were ≥ 10 µM and 1 to 10 µM, respectively. The concentration giving a half-maximal response (EC50) in test [2] was < 1 µM.
On to `CNCC1Cc2c(C)cccc2Oc2cccnc21` (single isomer, unassigned) [Compound 143, (R*)-(9-methyl-10,11-dihydrobenzo[6,7]oxepino[3,2-b]pyridin-11-yl)-N-methylmethanamine], for which the concentration for half-maximal inhibition (IC50) was ≥ 10 µM in test [1] and < 1 µM in test [3] (setting [5]). Also, in test [2], the concentration giving a half-maximal response (EC50) was < 1 µM.

A word on the IC50: it is the concentration at which inhibition is half-maximal. Usually EC50 stands for the concentration at which the effect is half-maximal. A lower EC50 goes with a more potent agent.
